The record followed here is article PMC4541410 (Scientific Reports, 2015).

Series [1] deals with T20-resistant HIV-1 strains.
The next series has as its system proteinase K. Nature of the series: in vitro. The following applies: proteinase K in PBS, pH 7.2. The procedure:
(§1) Chromatographic analyses were performed using an ODS-C8 column (5 μm, 100 mm × 2.0 mm ID) kept at ambient temperature. The mobile phase was composed of acetonitrile-water-formic acid in the ratio of 50:50:0.1 (v/v/v) at a flow rate of 0.3 mL/min. The sample injection volume was 10 μL. Acetonitrile was HPLC grade and other chemical reagents and solvents were analytical grade. A Thermo TSQ Quantum Discovery MAX triple-quadruple tandem mass spectrometer equipped with ESI source (San Jose, CA) and Surveyor LC pump were used for LC-MS analysis. Data acquisition and data processing were performed by using Xcalibur software and LCQuan 2.0 data analysis program (Thermo Finnigan), respectively. Optimized MS parameters were as below: 4800 V spray voltage, 40.0 psi sheath gas pressure, 1.0 psi auxiliary valve flow and 300 °C of capillary temperature. When running collision-induced dissociation (CID), the pressure was set to 1.5 mTorr.
The peptides (10 μg/mL) were prepared in PBS pH 7.2 containing 20 ng/ml proteinase K. The resulting mixture were incubated at 37 °C in a water bath and taken out at different time intervals (0, 5, 15, 30, 60, 120 minutes), followed by quenching the samples with ethyl alcohol and quantitating the peptides by LC-MS analysis as described above.

For series [2] the following is noted: rat liver homogenate (100 mg wet tissue/2.5 ml PBS pH 7.2, 9,000 g supernatant), peptide 10 μg/ml, 37 °C, LC-MS; triplicate. The protocol: as §1
The supernatants were collected.

The test system of a further series is 92UG029 (A). Conditions: read-out: IC50 (nM), infection by primary isolate 92UG029 (A); primary HIV-1 isolate, subtype A.
The next series concerns 92TH009 (A/E). The following applies: read-out: IC50 (nM), infection by primary isolate 92TH009 (A/E); primary HIV-1 isolate, subtype A/E.

Where a SMILES comes first, the peptide text is derived from it.

On to `CC[C@H](C)[C@H](NC(=O)[C@H](CO)NC(=O)[C@H](CCC(=O)O)NC(=O)[C@H](CCC(=O)O)NC(=O)[C@H](CCC(N)=O)NC(=O)[C@H](CCCCN)NC(=O)[C@H](CCCCN)NC(=O)[C@@H](NC(=O)[C@H](CCC(N)=O)NC(=O)[C@H](CCC(=O)O)NC(=O)[C@H](CCC(=O)O)NC(=O)[C@@H](NC(=O)[C@H](CCCCN)NC(=O)[C@H](CCCCN)NC(=O)[C@@H](NC(=O)[C@H](CC(C)C)NC(=O)[C@H](CCC(=O)O)NC(=O)[C@H](CCC(=O)O)NC(=O)[C@H](CO)NC(=O)[C@H](CCCCN)NC(=O)[C@H](CCCCN)NC(=O)[C@@H](NC(=O)[C@H](CC(C)C)NC(=O)[C@H](CCC(=O)O)NC(=O)[C@H](CCC(=O)O)NC(=O)[C@@H](NC(=O)[C@H](CCCCN)NC(=O)[C@H](CCCCN)NC(=O)[C@H](CC(=O)O)NC(=O)[C@H](Cc1c[nH]c2ccccc12)NC(=O)[C@H](CCC(=O)O)NC(=O)[C@H](CCC(=O)O)NC(=O)[C@H](Cc1c[nH]c2ccccc12)NC(=O)[C@@H](NC(=O)[C@H](CCSC)NC(C)=O)[C@@H](C)O)[C@@H](C)CC)[C@@H](C)CC)[C@@H](C)CC)[C@@H](C)CC)[C@@H](C)CC)C(=O)N[C@@H](CCCCN)C(=O)N[C@@H](CCCCN)C(N)=O` [AP3] (Ac-MTWEEWDKKIEELIKKSEELIKKIEEQIKKQEESIKK-NH2), for which the “fold more effective than AP2 against T20-resistant strains” value in series [1] (AP3 versus AP2) is 2- to 4 fold. The IC50 is 13 to 90 nM in series [1] (read-out: IC50 against T20-resistant HIV-1 strains (summary), over the T20-resistant strains of Table 1); 7.1 ± 1.7 nM in the series on 92UG029 (A); 27.8 ± 5.5 nM in the series with 92TH009 (A/E). In the series on proteinase K, this molecule gave an amount remaining at 2 h, 10 μg/mL of 100%. Also, in series [2], the “in vitro metabolic stability in liver homogenate” value was “significantly enhanced in vitro metabolic stability over T20”. For the same molecule, the “fold longer in vivo elimination half-life than T20” value (AP3 versus T20, SD rat, i.v. 1 mg/kg) is reported as “about 2.8 fold”. The same molecule gave a Cmax (intravenous 1 mg/kg, male SD rats, n = 2, plasma by sandwich ELISA, PK Solver) of 289.57 µg/mL.
